From US20080214563A1, “Benzimidazole Thiophene Compounds As Plk Modulators” (priority 2005, published 2008)

Legend:
PLK1 kinase domain = molecular target: T1, PLK1 kinase domain (Homo sapiens, UniProt P53350); test: Assay for Inhibition of PLK1 (33P SPA kinase assay); assay type: biochemical; conditions: 2 nM PLK1 kinase domain, 1 μM ATP; read-out: PLK1 pIC50 (converted)
T1 construct: made in house; host or cells: baculovirus infected T. ni cells
Experimental: All procedures were performed at 4° C. Cells were lysed in 50 mM HEPES, 200 mM NaCl, 50 mM imidazole, 5% glycerol; pH 7.5. The homogenate was centrifuged at 14K rpm in a SLA-1500 rotor for 1 h and the supernatant filtered through a 1.2 micron filter. The supernatant was loaded onto a Nickel chelating Sepharose (Amersham Pharmacia) column and washed with lysis buffer. Protein was eluted using 20%, 30% and 100% buffer B steps where buffer B is 50 mM HEPES, 200 mM NaCl, 300 mM imidazole, 5% glycerol; pH 7.5. Fractions containing PLK were determined by SDS-PAGE. Fractions containing PLK were diluted five-fold with 50 mM HEPES, 1 mM DTT, 5% glycerol; pH 7.5, then loaded on an SP Sepharose (Amersham Pharmacia) column. After washing the column with 50 mM HEPES, 1 mM DTT, 5% glycerol; pH 7.5, PLK was step eluted with 50 mM HEPES, 1 mM DTT, 500 mM NaCl; 5% glycerol; pH 7.5. PLK was concentrated using a 10 kDa molecular weight cutoff membrane and then loaded onto a Superdex 200 gel filtration (Amersham Pharmacia) column equilibrated in 25 mM HEPES, 1 mM DTT, 500 mM NaCl, 5% glycerol; pH 7.5. Fractions containing PLK were determined by SDS-PAGE. PLK was pooled, aliquoted and stored at −80° C. Samples were quality controlled using mass spectrometry, N-terminal sequencing and amino acid analysis.
B. Enzyme activity +/− inhibitors was determined as follows:
All measurements were obtained under conditions where signal production increased linearly with time and enzyme. Test compounds were added to white 384-well assay plates (0.1 μL for 10 μL and some 20 μl assays, 1 μL for some 20 μL assays) at variable known concentrations in 100% DMSO. DMSO (1-5% final, as appropriate) and EDTA (65 mM in reaction) were used as controls.
Reaction Mix (10 or 20 μL) was quickly added to each well immediately following addition of enzyme via automated liquid handlers and incubated 1-1.5 h at 22° C. The 20 μL enzymatic reactions were stopped with 50 μL of stop mix (50 mM EDTA, 4.0 mg/mL Streptavidin SPA beads in Standard Dulbecco's PBS (without Mg^2+ and Ca^2+), 50 μM ATP) per well. The 10 μL reactions were stopped with 10 μL of stop mix (50 mM EDTA, 3.0 mg/mL Streptavidin-coupled SPA Imaging Beads (“LeadSeeker”) in Standard Dulbecco's PBS (without Mg^2+ and Ca^2+), 50 μM ATP) per well. Plates were sealed with clear plastic seals, spun at 500×g for 1 min or settled overnight, and counted in Packard TopCount for 30 seconds/well (regular SPA) or imaged using a Viewlux imager (LeadSeeker SPA). Signal above background (EDTA controls) was converted to percent inhibition relative to that obtained in control (DMSO-only) wells.

MX-1 = test: Methylene Blue Cell Growth Inhibition Assay, MX-1; assay type: cell-based; conditions: Homo sapiens, MX1, 72 h, read-out: MEB MX-1 IC50
[1] = tested on: Normal human foreskin fibroblasts (HFF); test: Methylene Blue Cell Growth Inhibition Assay, HFF; assay type: cell-based; conditions: Fibroblast, 72 h, read-out: MEB HFF IC50
Experimental: Normal human foreskin fibroblasts (HFF), human colon (HCT116, RKO), lung (H460, A549) and breast (MCF7) tumor cell lines were cultured in high glucose DMEM (Life Technologies) containing 10% fetal bovine serum (FBS) at 37° C. in a humidified 5% CO2, 95% air incubator. Cells were harvested using trypsin/EDTA, counted using a haemocytometer, and plated in 100 μL of culture media per well, at the following densities, in a 96-well tissue culture plate (Falcon 3075): HFF 5,000 cells/well, HCT116 3,000 cells/well, RKO 2,500 cells/well, H460 2,500 cells/well, A549 5,000 cells/well, MCF7 4,000 cells/well. The next day, compounds were diluted in low glucose DMEM containing 100 μg/mL gentamicin, at twice the final required concentration, from 10 mM stock solutions in DMSO. 100 μL/well of these dilutions were added to the 100 μL of media currently in the assay plates. Medium containing 0.6% DMSO was added to control wells. The final concentration of DMSO in all wells was 0.3%. Cells were incubated at 37° C., 5% CO2 for 72 h. Medium was removed by aspiration. Cell biomass was estimated by staining cells with 80 μL per well methylene blue (Sigma M9140, 0.5% in 50:50 ethanol:water), and incubation at room temperature for 30-60 min. Stain was removed by aspiration and the plates rinsed by immersion in water, then air-dried. To release stain from the cells, 100 μL of solubilization solution was added (1% N-lauroyl sarcosine, Sodium salt, Sigma L5125, in PBS), and plates were shaken gently for about 30 min. Optical density at 620 nm was measured on a microplate reader. Percent inhibition of cell growth was calculated relative to vehicle treated control wells. Concentration of compound that inhibits 50% of cell growth (IC50) was interpolated using nonlinear regression (Levenberg-Marquardt) and the equation, y=Vmax*(1−(x/(K+x)))+Y2, where “K” was equal to the IC50.

T1 sequence (P53350 21-346): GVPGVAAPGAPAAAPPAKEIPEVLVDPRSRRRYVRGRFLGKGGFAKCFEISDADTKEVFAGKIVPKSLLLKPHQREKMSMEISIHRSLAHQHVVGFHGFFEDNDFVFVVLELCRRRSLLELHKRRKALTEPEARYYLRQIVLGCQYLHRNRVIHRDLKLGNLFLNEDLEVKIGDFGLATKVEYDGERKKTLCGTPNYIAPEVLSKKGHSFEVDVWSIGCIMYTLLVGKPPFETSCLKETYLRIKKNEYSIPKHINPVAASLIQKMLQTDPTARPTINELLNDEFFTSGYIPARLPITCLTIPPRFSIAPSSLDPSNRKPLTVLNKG

IC50 (PLK1 kinase domain) [nM]	SMILES	IC50 (MX-1) [nM]	IC50 [1] [nM]
< 10	C[C@@H](Oc1cc(-n2cnc3cc(-c4ccc(N5CCNCC5)nc4)ccc32)sc1C(N)=O)c1ccccc1C(F)(F)F [Example 1, 5-{5-[6-(1-piperazinyl)-3-pyridinyl]-1H-benzimidazol-1-yl}-3-({(1R)-1-[2-(trifluoromethyl)phenyl]ethyl}oxy)-2-thiophenecarboxamide]	100 to 1000	> 1000
< 10	C[C@@H](Oc1cc(-n2cnc3cc(-c4ccc(N5CCNCC5)nc4)ccc32)sc1C(N)=O)c1ccccc1Cl [Example 7, 3-{[(1R)-1-(2-Chlorophenyl)ethyl]oxy}-5-{5-[6-(1-piperazinyl)-3-pyridinyl]-1H-benzimidazol-1-yl}-2-thiophenecarboxamide]		
	C[C@@H](Oc1cc(-n2cnc3cc(-c4cnn(C)c4)ccc32)sc1C(N)=O)c1ccccc1Cl [Example 9, 3-{[(1R)-1-(2-Chlorophenyl)ethyl]oxy}-5-[5-(1-methyl-1H-pyrazol-4-yl)-1H-benzimidazol-1-yl]-2-thiophenecarboxamide]	< 100	100 to 1000
